Measurements taken from paper PMC11130353, “Using host-mimicking conditions and a murine cutaneous abscess model to identify synergistic antibiotic combinations effective against Pseudomonas aeruginosa” (Frontiers in Cellular and Infection Microbiology, 2024).
In brackets after ≈: the same amount, converted by molar mass. Entries after “also recorded” stand apart in the source; their conditions may differ. Read-outs that look alike come from different tables or passages of the source.

How the values were obtained:
P. aeruginosa LESB58 [1] = test: microbe, parasite or virus in culture; type: cell-based, Pseudomonas aeruginosa; settings: for MIC: Pseudomonas aeruginosa; for Fold change TCM vs MHB (MIC): MIC in TCM vs MIC in MHB
Experimental: (§1) For susceptibility testing under standard conditions, bacteria were cultured in Muller Hinton Broth MHB (Fort Richards Laboratories). […] Further susceptibility testing was also conducted in MHB supplemented with FBS (5% v/v) and DMEM supplemented with glucose (1% w/v) and MHB (10% v/v).
The minimum inhibitory concentration (MIC) of each antibiotic was determined using the broth microdilution method in 96-well plates. […] Briefly, antibiotics were two-fold serially diluted in MHB or TCM prior to adding 1 × 10^6 CFU mL^-1 bacteria. […] The MIC was recorded as the lowest antibiotic concentration with no visible growth and the median value of at least three biological replicates reported.

P. aeruginosa PAO1 = test: Minimum inhibitory concentration, broth microdilution; type: cell-based, Pseudomonas aeruginosa; settings: for MIC: Pseudomonas aeruginosa, PAO1; for Fold change TCM vs MHB (MIC): MIC in TCM vs MIC in MHB
Experimental: as §1
The minimum inhibitory concentration (MIC) of each antibiotic was determined using the broth microdilution method in 96-well plates. […] Briefly, antibiotics were two-fold serially diluted in MHB or TCM prior to adding 1 × 10^6 CFU mL^-1 bacteria. Plates were incubated at 37°C for 22-24 hours. The MIC was recorded as the lowest antibiotic concentration with no visible growth and the median value of at least three biological replicates reported.

P. aeruginosa LESB58 [2] = test: In vitro synergy, checkerboard assay; type: cell-based, Pseudomonas aeruginosa; settings: MHB; for FICI, drug combined with CAZ / FICI, drug combined with CZA: FICI <= 0.5 indicates synergy
Experimental: (§2) For susceptibility testing under standard conditions, bacteria were cultured in Muller Hinton Broth MHB (Fort Richards Laboratories). Host mimicking conditions in vitro were simulated using tissue culture medium (TCM) consisting of Dulbecco’s modified Eagle medium (DMEM; Gibco #11965) supplemented with FBS (Moregate Biotech) (5% v/v) and glucose (1% w/v). Further susceptibility testing was also conducted in MHB supplemented with FBS (5% v/v) and DMEM supplemented with glucose (1% w/v) and MHB (10% v/v).
(§3) The P. aeruginosa LESB58.lux strain was used for in vitro synergy experiments with azithromycin in MHB and all antibiotic combinations in TCM to determine bacterial growth (as visual inspection and absorbance measurements were unreliable). Synergy was determined using the checkerboard method ([Berenbaum, 1978]; [Pletzer and Hancock, 2018]) in at least triplicate. Each antibiotic was two-fold serially diluted in sterile water before transferring to a 96-well plate containing 1 × 10^6 CFU mL^-1 bacteria in MHB or TCM. Plates were incubated at 37°C for 22-24 hours. The MIC alone or in combination was recorded as the lowest antibiotic concentration with no visible growth. For experiments using the LESB58.lux strain no visible growth was defined as an at least 95% reduction compared to the no antibiotic growth control in luminescence detected using a ClarioStar plate reader. The fractional inhibitory concentration index (FICI) was calculated as [(MICA in combination)/MICA] + [(MICB in combination)/MICB]. FICI values of 0.5 or below indicated synergy, while values above 0.5 up to and including 1 were taken to indicate additivity. FICI values above 1 indicate indifference or antagonism ([Odds, 2003]).

P. aeruginosa LESB58-lux = test: In vitro synergy, checkerboard assay (luminescence readout); type: cell-based, Pseudomonas aeruginosa; settings: TCM; for FICI, drug combined with CAZ / FICI, drug combined with CZA: FICI <= 0.5 indicates synergy
Experimental: as §2, §3

[3] = Experimental: Mice used in this study were female Swiss Webster aged approximately 6-7 weeks and sourced from the University of Otago Biomedical Research Facility. […] Briefly, the fur on the back of each mouse was removed by shaving and chemical depilation. Antibiotics were tested for skin toxicity by injecting 50 μL of antibiotic suspension subcutaneously into naïve mice, and subsequent inspection of the skin for inflammation on the next day. P. aeruginosa LESB58 was grown to mid-log phase in dYT broth, washed twice in sterile PBS (Gibco, pH 7.4), and resuspended in PBS to ~1 x 10^8 CFU per 50 μL inoculum. The bacterial suspension (50 μL) was injected subcutaneously into the right side of the dorsum, followed one hour later by 50 μL of antibiotic treatment injected directly into the infected area. […] Combination treatments were administered as a single 50 μL injection containing both antibiotics. The concentration of each antibiotic in the combination was the same as when it was used alone. Progression of the infection was monitored daily, and abscess dimensions were measured on day three using a calliper. On day three, abscess tissue and pus were excised, homogenized in sterile PBS using SPEX SamplePrep 1600 MiniG for five minutes and bacterial CFU counts determined by serial dilution.
P. aeruginosa LESB58 [4] = test: Murine high density subcutaneous skin abscess model; type: in vivo, Pseudomonas aeruginosa; settings: Colistin
Experimental: Mice used in this study were female Swiss Webster aged approximately 6-7 weeks and sourced from the University of Otago Biomedical Research Facility. […] The subcutaneous abscess infection model was performed as previously described ([Pletzer et al., 2017]) with a higher inoculum. Briefly, the fur on the back of each mouse was removed by shaving and chemical depilation. Antibiotics were tested for skin toxicity by injecting 50 μL of antibiotic suspension subcutaneously into naïve mice, and subsequent inspection of the skin for inflammation on the next day. P. aeruginosa LESB58 was grown to mid-log phase in dYT broth, washed twice in sterile PBS (Gibco, pH 7.4), and resuspended in PBS to ~1 x 10^8 CFU per 50 μL inoculum. The bacterial suspension (50 μL) was injected subcutaneously into the right side of the dorsum, followed one hour later by 50 μL of antibiotic treatment injected directly into the infected area. […] Combination treatments were administered as a single 50 μL injection containing both antibiotics. The concentration of each antibiotic in the combination was the same as when it was used alone. Progression of the infection was monitored daily, and abscess dimensions were measured on day three using a calliper. On day three, abscess tissue and pus were excised, homogenized in sterile PBS using SPEX SamplePrep 1600 MiniG for five minutes and bacterial CFU counts determined by serial dilution. In this model, synergy was defined as being a significant difference between the combination treated group and the amalgamated group of single drug treated animals ([Fantin and Carbon, 1992]; [Pletzer et al., 2018]).
Statistical analysis was performed using GraphPad Prism 9.5.1. Bacterial CFU and abscess size data from in vivo experiments was analysed by Kruskal-Wallace test with Dunn’s correction for multiple comparisons. The data was considered significant when p-values were below 0.05 or 0.01 as indicated.

[5] = LESB58, read-out: MIC in MHB, MHB, 20-24 h
[6] = LESB58, read-out: MIC in TCM, TCM (DMEM + 1% glucose + 5% FBS), 20-24 h
[7] = 50 μL injected subcutaneously, skin inspected next day
[8] = tigecycline and tobramycin groups, compared to the vehicle control, day 3

Structure (SMILES) | MIC (P. aeruginosa LESB58 [1]; [5]) [µg/mL] | MIC (P. aeruginosa LESB58 [1]; [6]) [µg/mL] | MIC (P. aeruginosa PAO1; read-out: MIC in MHB) [µg/mL] | MIC (P. aeruginosa PAO1; read-out: MIC in TCM) [µg/mL] | FICI, drug combined with CAZ (P. aeruginosa LESB58 [2]) | Highest tolerated dose tested [3, 7] [mg/mL] | Fold change TCM vs MHB (MIC) (P. aeruginosa LESB58 [1]) | Fold change TCM vs MHB (MIC) (P. aeruginosa PAO1) | Fold decrease in CAZ MIC, drug combined with CAZ (P. aeruginosa LESB58 [2]) | Fold decrease in CZA MIC, drug combined with CZA (P. aeruginosa LESB58 [2]) | Fold decrease in other MIC, drug combined with CAZ (P. aeruginosa LESB58 [2]) | Fold decrease in other MIC, drug combined with CZA (P. aeruginosa LESB58 [2]) | further results
O=C(O)c1cn(C2CC2)c2cc(N3CCNCC3)c(F)cc2c1=O [CIP, ciprofloxacin] | 3.13 (≈ 9.45 µM) | 50 | 0.156 (≈ 0.471 µM) | 1.25 (≈ 3.77 µM) | 0.5 | 40 | – | – | – | – | – | – | FICI, drug combined with CZA (P. aeruginosa LESB58 [2]): 0.5; Ceftazidime-avibactam MIC in combination with the named drug (P. aeruginosa LESB58-lux): 4 µg/mL; FICI, drug combined with CAZ (P. aeruginosa LESB58-lux; LESB58-lux): 0.63; FICI, drug combined with CZA (P. aeruginosa LESB58-lux; LESB58-lux): 0.63
C[C@H]1[C@H](NC(=O)/C(=N\OC(C)(C)C(=O)O)c2csc(N)n2)C(=O)N1S(=O)(=O)O [ATM, aztreonam] | 62.5 (≈ 144 µM) | 500 | 12.5 (≈ 28.7 µM) | 12.5 (≈ 28.7 µM) | 0.75 | 25 | 8 | 1 | 2 | 2 | 4 | 4 | FICI, drug combined with CZA (P. aeruginosa LESB58 [2]): 0.75
C[C@]1(Cn2ccnn2)[C@H](C(=O)O)N2C(=O)C[C@H]2S1(=O)=O [Tazobactam] | – | – | – | – | – | – | – | – | – | – | – | – | Highest tolerated dose tested ([3]; female, Swiss Webster, mouse, in vivo, sc, 1 day): 25 mg/mL
Cn1c(N)c(NC(=O)NCCN)c[n+]1CC1=C(C(=O)O)N2C(=O)[C@@H](NC(=O)/C(=N\OC(C)(C)C(=O)[O-])c3nsc(N)n3)[C@H]2SC1 [Ceftolozane] | – | – | – | – | – | 50 | – | – | – | – | – | – | –
C[C@@H](O)[C@H]1C(=O)N2C(C(=O)O)=C(S[C@@H]3CN[C@H](C(=O)N(C)C)C3)[C@H](C)[C@H]12 [MEM] | – | – | – | – | – | – | – | – | – | – | – | – | Toxic (visible skin irritation, inflammation, blood vessels, swelling) [3, 7]: 20 mg/mL; Highest tolerated dose tested ([3]; mouse, in vivo, sc): 10 mg/mL
NC[C@H]1O[C@H](O[C@H]2[C@H](O)[C@@H](O[C@H]3O[C@H](CO)[C@@H](O)[C@H](N)[C@H]3O)[C@H](N)C[C@@H]2N)[C@H](N)C[C@@H]1O [TOB, tobramycin] | 3.13 (≈ 6.69 µM) | 62.5 | 0.625 (≈ 1.34 µM) | 25 (≈ 53.5 µM) | 0.38 | – | 20 | 40 | 4 | 4 | 8 | 8 | FICI, drug combined with CAZ (P. aeruginosa LESB58 [2]; listed as tobramycin): < 0.4; FICI, drug combined with CZA (P. aeruginosa LESB58 [2]; listed as tobramycin): < 0.4; Fold decrease in CAZ MIC, drug combined with CAZ (P. aeruginosa LESB58-lux; LESB58-lux): 8; Fold decrease in CZA MIC, drug combined with CZA (P. aeruginosa LESB58-lux; LESB58-lux): 2; Fold decrease in other MIC, drug combined with CAZ (P. aeruginosa LESB58-lux; LESB58-lux): 4; Fold decrease in other MIC, drug combined with CZA (P. aeruginosa LESB58-lux; LESB58-lux): 8; FICI, drug combined with CAZ (P. aeruginosa LESB58-lux; LESB58-lux): 0.38; FICI, drug combined with CZA (P. aeruginosa LESB58-lux; LESB58-lux): 0.63; FICI, drug combined with CAZ (P. aeruginosa LESB58-lux; LESB58-lux, listed as tobramycin): synergised; also recorded: retained; Area of dermoncecrosis, Mean (P. aeruginosa LESB58 [4]; tigecycline and tobramycin groups (shared vehicle, CAZ and CZA mice), female Swiss Webster mice, 50 μL s.c. 1 h after infection, day 3, CAZ or CZA 50, CST 1.25, TGC 2.5, TOB 2 mg/mL, vehicle 0.9% saline): 55.6 mm^2; Area of dermoncecrosis, % reduction (P. aeruginosa LESB58 [4]; [8]): 40.9%; CFU per abscess, Fold change (P. aeruginosa LESB58 [4]; [8]): -5.4; Area of dermoncecrosis, % reduction (P. aeruginosa LESB58 [4]; tigecycline and tobramycin groups, compared to the vehicle control, day 3, listed as tobramycin): 41%; CFU per abscess, Geometric mean (P. aeruginosa LESB58 [4]; tigecycline and tobramycin groups, day 3): 4.5 × 10^7 CFU per abscess; Fold reduction of bacterial load (CFU) relative to vehicle (P. aeruginosa LESB58 [4]; tigecycline, tobramycin experiments): ~5
CNC(C)C1CCC(N)C(OC2C(N)CC(N)C(OC3OCC(C)(O)C(NC)C3O)C2O)O1 (stereo not drawn) [GEN, gentamicin] | 25 (≈ 52.3 µM) | 500 | 1.56 (≈ 3.27 µM) | 25 (≈ 52.3 µM) | 0.25 | 20 | 20 | 16 | 8 | 8 | 8 | 8 | Toxic (visible skin irritation, inflammation, blood vessels, swelling) [3, 7]: 40 mg/mL
